# Values of other authors as cited in US8980874B2, “Method and composition for treating diabetic ketoacidosis” (Midwestern University, priority 2009, dated 2015).
# What was measured:
# [1] = test system: rat model of embolic stroke; conditions: rat model of embolic stroke where rtPA was used; cited from earlier work
# BBB permeability = conditions: repeated intracisternal administration of ET-1 in dogs and rats; cited from earlier work
smiles,measurement,setting,value
CC1(C)CC[C@]2(C(=O)[O-])CC[C@]3(COC(=O)/C=C/c4cc([O-])ccc4NC(=O)/C=C/C(=O)O)C(=CC[C@@H]4[C@@]5(C)CCC(=O)C(C)(C)[C@@H]5CC[C@]43C)[C@@H]2C1.[Na+].[Na+] [S-0139],neuroprotection / rtPA evoked disruption of BBB,[1],provided neuroprotection by suppressing rtPA evoked disruption of BBB
same,effect on ET-1 induced increase in BBB permeability,BBB permeability,blocked
